Assay results reported in patent US20260207623A1, “USE OF ESTETROL IN HEPATICALLY IMPAIRED PATIENTS” (ESTETRA SRL, priority 2022, published 2026).
Entries after “also recorded” stand apart in the source; their conditions may differ.

What was measured:
Assay type in all cases: in vivo, human
[1] = test system: post-menopausal women; assay: Example 2: number of patients with endometrial biopsies
Method: If during the course of the trial, a double layer endometrial thickness≥15 mm was detected on TVUS and/or abnormal uterine bleeding (in the judgement of the gynecologist in light of the estrogen therapy) was reported by a non-hysterectomied person, they underwent an endometrial biopsy and was treated with progestin (10 mg dydrogesterone) QD until end of Week 11 in a sequential way (i.e., a 14 day progestin treatment period followed by a 14 day progestin treatment pause) in addition to the E4/placebo treatment. […] If an abnormal uterine bleeding occurred again after a first normal endometrial biopsy, a thorough gynaecological examination and a TVUS were performed. If necessary in the judgment of the gynecologist, a second endometrial biopsy was performed.
1. Number of Patients with Biopsies

[2] = test system: post-menopausal women; assay: Example 2 dose-finding study: Hot Flush Weekly Weighted Score
Method: Further, the terms “Hot Flush Weekly Weighted Score”, as used herein, corresponds to a score taking into account frequency and severity which is calculated by using the severity score (as calculated above): [(1×No. of mild VMS)+(2×No. of moderate VMS)+(3×No. of severe VMS)] during a 7 day period.
All treatments (Estetrol, hereinafter E4 as monohydrate, [2.5 mg, 5 mg, 10 mg, 15 mg] capsule) were administered once daily (QD) per os for at least 12 consecutive weeks until the last biological assessments (Day 91 maximum) had been performed.
A further analysis of the results was thus prepared, where data from these two doses were grouped with the placebo dose and compared to the 10 mg and 15 mg estetrol monohydrate doses.

[3] = test system: Haemoglobin A1C; assay: Example 3: haemoglobin A1C, change from baseline to week 12

## C[C@]12CC[C@@H]3c4ccc(O)cc4CC[C@H]3[C@@H]1[C@@H](O)[C@@H](O)[C@@H]2O [E4 monohydrate, estetrol monohydrate]
[1]; 2.5 mg daily
  Number of patients with biopsies: 4
[1]; 5 mg daily
  Number of patients with biopsies: 5
[1]; 10 mg daily
  Number of patients with biopsies: 11
[1]; 15 mg daily
  Number of patients with biopsies: 9
[1]; 15 mg per day group compared with 10 mg per day group
  requirements for biopsies: less requirements for biopsies
[2]; 2.5 mg daily, week 0
  Hot Flush Weekly Weighted Score, relative change (% from baseline), Mean: 0%
[2]; 2.5 mg daily, week 1
  Hot Flush Weekly Weighted Score, relative change (% from baseline), Mean: −22%
[2]; 2.5 mg daily, week 2
  Hot Flush Weekly Weighted Score, relative change (% from baseline), Mean: −32%
[2]; 2.5 mg daily, week 3
  Hot Flush Weekly Weighted Score, relative change (% from baseline), Mean: −43%
[2]; 2.5 mg daily, week 4
  Hot Flush Weekly Weighted Score, relative change (% from baseline), Mean: −47%
[2]; 2.5 mg daily, week 5
  Hot Flush Weekly Weighted Score, relative change (% from baseline), Mean: −48%
[2]; 2.5 mg daily, week 6
  Hot Flush Weekly Weighted Score, relative change (% from baseline), Mean: −51%
[2]; 2.5 mg daily, week 7
  Hot Flush Weekly Weighted Score, relative change (% from baseline), Mean: −53%
[2]; 2.5 mg daily, week 8
  Hot Flush Weekly Weighted Score, relative change (% from baseline), Mean: −55%
[2]; 2.5 mg daily, week 9
  Hot Flush Weekly Weighted Score, relative change (% from baseline), Mean: −57%
[2]; 2.5 mg daily, week 10
  Hot Flush Weekly Weighted Score, relative change (% from baseline), Mean: −57%
[2]; 2.5 mg daily, week 11
  Hot Flush Weekly Weighted Score, relative change (% from baseline), Mean: −56%
[2]; 2.5 mg daily, week 12
  Hot Flush Weekly Weighted Score, relative change (% from baseline), Mean: −57%
[2]; 5 mg daily, week 0
  Hot Flush Weekly Weighted Score, relative change (% from baseline), Mean: 0%
[2]; 5 mg daily, week 1
  Hot Flush Weekly Weighted Score, relative change (% from baseline), Mean: −22%
[2]; 5 mg daily, week 2
  Hot Flush Weekly Weighted Score, relative change (% from baseline), Mean: −32%
[2]; 5 mg daily, week 3
  Hot Flush Weekly Weighted Score, relative change (% from baseline), Mean: −37%
[2]; 5 mg daily, week 4
  Hot Flush Weekly Weighted Score, relative change (% from baseline), Mean: −43%
[2]; 5 mg daily, week 5
  Hot Flush Weekly Weighted Score, relative change (% from baseline), Mean: −46%
[2]; 5 mg daily, week 6
  Hot Flush Weekly Weighted Score, relative change (% from baseline), Mean: −56%
[2]; 5 mg daily, week 7
  Hot Flush Weekly Weighted Score, relative change (% from baseline), Mean: −56%
[2]; 5 mg daily, week 8
  Hot Flush Weekly Weighted Score, relative change (% from baseline), Mean: −56%
[2]; 5 mg daily, week 9
  Hot Flush Weekly Weighted Score, relative change (% from baseline), Mean: −58%
[2]; 5 mg daily, week 10
  Hot Flush Weekly Weighted Score, relative change (% from baseline), Mean: −59%
[2]; 5 mg daily, week 11
  Hot Flush Weekly Weighted Score, relative change (% from baseline), Mean: −61%
[2]; 5 mg daily, week 12
  Hot Flush Weekly Weighted Score, relative change (% from baseline), Mean: −60%
[2]; 10 mg daily, week 0
  Hot Flush Weekly Weighted Score, relative change (% from baseline), Mean: 0%
[2]; 10 mg daily, week 0, section B analysis
  Hot Flush Weekly Weighted Score, relative change (% from baseline), Mean: 0%
[2]; 10 mg daily, week 1
  Hot Flush Weekly Weighted Score, relative change (% from baseline), Mean: −20%
[2]; 10 mg daily, week 1, section B analysis
  Hot Flush Weekly Weighted Score, relative change (% from baseline), Mean: −20%
[2]; 10 mg daily, week 2
  Hot Flush Weekly Weighted Score, relative change (% from baseline), Mean: −35%
[2]; 10 mg daily, week 3
  Hot Flush Weekly Weighted Score, relative change (% from baseline), Mean: −47%
[2]; 10 mg daily, week 4
  Hot Flush Weekly Weighted Score, relative change (% from baseline), Mean: −54%
[2]; 10 mg daily, week 5
  Hot Flush Weekly Weighted Score, relative change (% from baseline), Mean: −58%
[2]; 10 mg daily, week 7
  Hot Flush Weekly Weighted Score, relative change (% from baseline), Mean: −64%
[2]; 10 mg daily, week 7, section B analysis
  Hot Flush Weekly Weighted Score, relative change (% from baseline), Mean: −64%
[2]; 10 mg daily, week 8, section B analysis
  Hot Flush Weekly Weighted Score, relative change (% from baseline), Mean: −66%
[2]; 10 mg daily, week 9
  Hot Flush Weekly Weighted Score, relative change (% from baseline), Mean: −67%
[2]; 10 mg daily, week 9, section B analysis
  Hot Flush Weekly Weighted Score, relative change (% from baseline), Mean: −66%
[2]; 10 mg daily, week 10, section B analysis
  Hot Flush Weekly Weighted Score, relative change (% from baseline), Mean: −68%
[2]; 10 mg daily, week 11
  Hot Flush Weekly Weighted Score, relative change (% from baseline), Mean: −69%
[2]; 10 mg daily, week 11, section B analysis
  Hot Flush Weekly Weighted Score, relative change (% from baseline), Mean: −68%
[2]; 10 mg daily, week 12
  Hot Flush Weekly Weighted Score, relative change (% from baseline), Mean: −70%
[2]; 10 mg daily, week 12, section B analysis
  Hot Flush Weekly Weighted Score, relative change (% from baseline), Mean: −69%
[2]; 15 mg daily, week 0
  Hot Flush Weekly Weighted Score, relative change (% from baseline), Mean: 0%
[2]; 15 mg daily, week 0, section B analysis
  Hot Flush Weekly Weighted Score, relative change (% from baseline), Mean: 0%
[2]; 15 mg daily, week 1
  Hot Flush Weekly Weighted Score, relative change (% from baseline), Mean: −19%
[2]; 15 mg daily, week 1, section B analysis
  Hot Flush Weekly Weighted Score, relative change (% from baseline), Mean: −22%
[2]; 15 mg daily, week 2
  Hot Flush Weekly Weighted Score, relative change (% from baseline), Mean: −43%
[2]; 15 mg daily, week 3, section B analysis
  Hot Flush Weekly Weighted Score, relative change (% from baseline), Mean: −56%
[2]; 15 mg daily, week 4, section B analysis
  Hot Flush Weekly Weighted Score, relative change (% from baseline), Mean: −66%
[2]; 15 mg daily, week 5, section B analysis
  Hot Flush Weekly Weighted Score, relative change (% from baseline), Mean: −70%
[2]; 15 mg daily, week 6
  Hot Flush Weekly Weighted Score, relative change (% from baseline), Mean: −74%
[2]; 15 mg daily, week 6, section B analysis
  Hot Flush Weekly Weighted Score, relative change (% from baseline), Mean: −72%
[2]; 15 mg daily, week 8
  Hot Flush Weekly Weighted Score, relative change (% from baseline), Mean: −78%
[2]; 15 mg daily, week 8, section B analysis
  Hot Flush Weekly Weighted Score, relative change (% from baseline), Mean: −76%
[2]; 15 mg daily, week 9
  Hot Flush Weekly Weighted Score, relative change (% from baseline), Mean: −80%
[2]; 15 mg daily, week 9, section B analysis
  Hot Flush Weekly Weighted Score, relative change (% from baseline), Mean: −78%
[2]; 15 mg daily, week 10
  Hot Flush Weekly Weighted Score, relative change (% from baseline), Mean: −79%
[2]; 15 mg daily, week 11
  Hot Flush Weekly Weighted Score, relative change (% from baseline), Mean: −80%
[2]; 15 mg daily, week 11, section B analysis
  Hot Flush Weekly Weighted Score, relative change (% from baseline), Mean: −79%
[2]; 15 mg daily, week 12
  Hot Flush Weekly Weighted Score, relative change (% from baseline), Mean: −82%
[2]; 15 mg daily, week 12, section B analysis
  Hot Flush Weekly Weighted Score, relative change (% from baseline), Mean: −81%
[3]; 15 mg and 20 mg, after 12 weeks, monohydrate
  haemoglobin A1C levels: decreased; also recorded: reduced
[3]; 15 mg, Baseline
  Haemoglobin A1C, mean: 5.625
[3]; 15 mg, Week 12
  Haemoglobin A1C, mean: 5.504
[3]; 20 mg, Baseline
  Haemoglobin A1C, mean: 5.605
[3]; 20 mg, Week 12
  Haemoglobin A1C, mean: 5.458
